For data set [1] the following is noted: titer based on the toxicity of 2,3,7,8-TCDD (receptor binding, allylhydrocarbon hydroxylase inducing ability, toxic effect); cited from earlier work.
Data set [2] deals with anti-dioxin monoclonal antibody. The settings on record: Catalog No. PDI-Dioxin-30, IgG1, host mouse; cited from earlier work.
For data set [3] the test system is unchanged. The data set is described as follows: surface plasmon resonance (BIAcore 2000) competitive method with HRP-2,3,7,8-TCDD on an antibody-fixed CM5 sensor chip. Type of data set: binding, mouse. The settings on record: average of the four cells. An excerpt: An anti-dioxin monoclonal antibody was fixed to a sensor chip by the aminocoupling method using BIAcore (registered trademark) 2000.
As a sensor chip to which the antibody was not fixed, a sensor chip (commercial name CM5) available from BIAcore company was used. The metallic thin film 14 is composed of gold, and its thickness is 50 nm. The fixing body 18 is carboxymethyldextran having no crosslinked structure, and its thickness is 100 nm.
As the anti-dioxin monoclonal antibody, Catalog No. PDI-Dioxin-30 (Research Diagnostics, Inc., Pleasant Hill Road, Flanders, New Jersey, USA) was used. As the host, mouse was used. This anti-dioxin monoclonal antibody contains 10 mg IgG1 in 3.125 ml (3.2 mg/ml), 0.2M PBS, pH 7.2, and 0.05% sodium azide.
First, BIAcore's sensor chip CM5 was set in BIAcore (registered trademark) 2000. Then, a mixed solution of N-ethyl-N'-(3-dimethylaminopropyl)carbodiimide hydrochloride (EDC) and N-hydroxysuccinimide (NHS) was injected into BIAcore (registered trademark) 2000 to activate the sensor chip CM5.
The anti-dioxin monoclonal antibody (1,000 ppm) was centrifuged to replace the solvent. Finally, the antibody was dissolved in 100 µl of 10 mM acetic acid environment solution. The resulting solution in an amount of 50 µl was injected into BIAcore (registered trademark) 2000 at a rate of 5 µl/min to fix the anti-dioxin monoclonal antibody onto the surface of the sensor chip. […]
Using the sensor chip obtained in Example 1, dioxins were detected by the competitive method. […]
The diluted 2,3,7,8-TCDD solution of each concentration was mixed with 10 ppm HRP-2,3,7,8-TCDD in BIAcore. […] A change in the disappearance angle due to the binding of 2,3,7,8-TCDD itself to the antibody is too small to be measured by SPR. […]
Then, the mixture was injected (3 µl/min) into BIAcore 2000, and an SPR signal was measured to determined the disappearance angle. That is, polarized light with a wavelength of 760 nm was projected, and the intensity of reflected light was measured, with the angle of incidence of incident light being varied. […]
Background: SPR reads the build-up and loss of mass on a sensor chip optically.

These results are taken from patent publication EP1143251B9, “METHOD AND BIOSENSOR FOR DETECTING ANTIGEN” (priority 1999, dated 2000).

With `Clc1cc2c(c(Cl)c1Cl)Oc1c(Cl)c(Cl)c(Cl)c(Cl)c1O2` [1,2,3,4,6,7,8-Hepta CDD], the TEF in data set [1] is given as 0.01.
Regarding `Clc1cc2c(oc3c(Cl)c(Cl)c(Cl)c(Cl)c32)c(Cl)c1Cl` [1,2,3,4,6,7,8-Hepta CDF], the TEF in data set [1] is on record as 0.1.
For the molecule `Clc1cc2oc3c(Cl)c(Cl)c(Cl)c(Cl)c3c2c(Cl)c1Cl` [1,2,3,4,7,8,9-Hepta CDF], the TEF in data set [1] is 0.1.
`Clc1cc2c(cc1Cl)Oc1c(Cl)c(Cl)c(Cl)c(Cl)c1O2` [1,2,3,4,7,8-Hexa CDD]: the TEF in data set [1] is listed as 0.1.
Regarding `Clc1cc2oc3c(Cl)c(Cl)c(Cl)c(Cl)c3c2cc1Cl` [1,2,3,4,7,8-Hexa CDF], in data set [1], the TEF was 0.1.
Take `Clc1cc2c(c(Cl)c1Cl)Oc1cc(Cl)c(Cl)c(Cl)c1O2` [1,2,3,6,7,8-Hexa CDD]: the TEF in data set [1] is given as 0.1.
Regarding `Clc1cc2c(oc3cc(Cl)c(Cl)c(Cl)c32)c(Cl)c1Cl` [1,2,3,6,7,8-Hexa CDF], in data set [1], the TEF is on record as 0.1.
In the case of `Clc1cc2c(c(Cl)c1Cl)Oc1c(cc(Cl)c(Cl)c1Cl)O2` [1,2,3,7,8,9-Hexa CDD], the TEF in data set [1] is 0.1.
`Clc1cc2oc3cc(Cl)c(Cl)c(Cl)c3c2c(Cl)c1Cl` [1,2,3,7,8,9-Hexa CDF]: the TEF in data set [1] was 0.1.
`Clc1cc2c(cc1Cl)Oc1c(cc(Cl)c(Cl)c1Cl)O2` [1,2,3,7,8-Penta CDD]: the TEF in data set [1] is 0.5.
`Clc1cc2oc3cc(Cl)c(Cl)c(Cl)c3c2cc1Cl` [1,2,3,7,8-Penta CDF]: the TEF in data set [1] is recorded as 0.05.
As to `Clc1cc(Cl)c2c(c1Cl)Oc1ccccc1O2` [1,2,4-TriCDD], the “reactivity of the anti-dioxin monoclonal antibody” value (“reactivity” for short) in data set [2] is recorded as <1.0%.
As to `Clc1cc(Cl)c2c(c1)Oc1c(Cl)cc(Cl)cc1O2` [1,3,6,8-Tetra CDD], in data set [1], the TEF is given as 0.
On to `Clc1cc(Cl)c2c(c1)oc1c(Cl)cc(Cl)cc12` [1,3,6,8-Tetra CDF], for which, in data set [1], the TEF is 0.
Turning to `Clc1cc(Cl)c2c(c1)Oc1cc(Cl)cc(Cl)c1O2` [1,3,7,9-Tetra CDD], in data set [1], the TEF is recorded as 0.
Take `Clc1cc2c(oc3c(Cl)c(Cl)c(Cl)cc32)c(Cl)c1Cl` [2,3,4,6,7,8-Hexa CDF]: in data set [1], the TEF was 0.1.
For `Clc1cc2c(cc1Cl)Oc1cc(Cl)c(Cl)cc1O2` [2,3,7,8-TCDD], the TEF in data set [1] is on record as 1. In addition, the “ΔRU Average” value stood at 234.75 RU in data set [3] (Dioxin concentration 3.8 ppb), 197.9 RU in data set [3] (Dioxin concentration 7.6ppb) and 135.9 RU in data set [3] (Dioxin concentration 76 ppb). Besides, the “reactivity” value in data set [2] was 100%.
Take `Clc1cc2oc3cc(Cl)c(Cl)cc3c2cc1Cl` [2,3,7,8-TCDF]: in data set [1], the TEF was 0.1. Also, the “reactivity” value in data set [2] was 4.6%.
For the molecule `Clc1ccc2c(c1)Oc1cc(Cl)c(Cl)cc1O2` [2,3,7-TriCDD], in data set [2], the “reactivity” value is <20%.
Regarding `Clc1cc2c(cc1Cl)Oc1ccccc1O2` [2,3-DCDD], the “reactivity” value in data set [2] is recorded as 2.2%.
For `Clc1ccc2c(c1)Oc1ccccc1O2` [2-CDD], in data set [2], the “reactivity” value is on record as 0.3%.
In the case of `Clc1c(Cl)c(Cl)c2c(c1Cl)Oc1c(Cl)c(Cl)c(Cl)c(Cl)c1O2` [Octa CDD], the TEF in data set [1] is on record as 0.001.
For `Clc1c(Cl)c(Cl)c2c(oc3c(Cl)c(Cl)c(Cl)c(Cl)c32)c1Cl` [Octa CDF], the TEF in data set [1] is listed as 0.001.
